Assay results from patent US9365572B2, “PI3K and/or mTOR inhibitor” (XUANZHU PHARMA CO., LTD., priority 2012, dated 2016).

Columns and labels:
Opiate μ(OP3, MOP) = Opiate μ(OP3, MOP) (Homo sapiens (Human), UniProt P35372); test: Radioligand binding assay No. 260410; conditions: test substance 10 μM, read-out: Inhibitory rate (%), Opiate μ(OP3, MOP)
[1] = molecular target: Transporter, Serotonin (5-Hydroxytryptamine) (SERT) (Homo sapiens (Human), UniProt P31645); test: Radioligand binding assay No. 274030; conditions: test substance 10 μM, read-out: Inhibitory rate (%), Transporter, Serotonin (5-Hydroxytryptamine) (SERT)
Chain of Transporter, Serotonin (5-Hydroxytryptamine) (SERT) (P31645 whole entry): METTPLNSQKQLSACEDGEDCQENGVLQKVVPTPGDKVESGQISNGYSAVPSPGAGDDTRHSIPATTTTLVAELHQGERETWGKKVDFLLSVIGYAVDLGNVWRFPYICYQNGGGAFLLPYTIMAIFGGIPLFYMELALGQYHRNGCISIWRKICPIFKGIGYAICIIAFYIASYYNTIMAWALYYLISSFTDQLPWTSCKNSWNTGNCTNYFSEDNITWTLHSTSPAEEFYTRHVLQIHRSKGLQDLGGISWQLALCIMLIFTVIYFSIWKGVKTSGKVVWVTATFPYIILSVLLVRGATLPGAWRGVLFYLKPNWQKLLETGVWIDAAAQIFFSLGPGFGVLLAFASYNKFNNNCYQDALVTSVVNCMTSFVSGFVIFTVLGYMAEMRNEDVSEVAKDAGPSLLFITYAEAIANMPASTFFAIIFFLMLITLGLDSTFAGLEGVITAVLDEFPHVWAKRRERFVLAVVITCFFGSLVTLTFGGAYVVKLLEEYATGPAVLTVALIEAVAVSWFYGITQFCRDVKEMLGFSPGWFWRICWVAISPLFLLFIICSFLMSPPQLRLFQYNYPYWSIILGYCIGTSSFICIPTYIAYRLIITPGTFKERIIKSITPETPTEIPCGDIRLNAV

Estrogen ERα = Estrogen ERα (Homo sapiens (Human), UniProt P03372); test: Radioligand binding assay No. 226010; conditions: test substance 10 μM, read-out: Inhibitory rate (%), Estrogen ERα
Chain of Estrogen ERα (P03372 whole entry): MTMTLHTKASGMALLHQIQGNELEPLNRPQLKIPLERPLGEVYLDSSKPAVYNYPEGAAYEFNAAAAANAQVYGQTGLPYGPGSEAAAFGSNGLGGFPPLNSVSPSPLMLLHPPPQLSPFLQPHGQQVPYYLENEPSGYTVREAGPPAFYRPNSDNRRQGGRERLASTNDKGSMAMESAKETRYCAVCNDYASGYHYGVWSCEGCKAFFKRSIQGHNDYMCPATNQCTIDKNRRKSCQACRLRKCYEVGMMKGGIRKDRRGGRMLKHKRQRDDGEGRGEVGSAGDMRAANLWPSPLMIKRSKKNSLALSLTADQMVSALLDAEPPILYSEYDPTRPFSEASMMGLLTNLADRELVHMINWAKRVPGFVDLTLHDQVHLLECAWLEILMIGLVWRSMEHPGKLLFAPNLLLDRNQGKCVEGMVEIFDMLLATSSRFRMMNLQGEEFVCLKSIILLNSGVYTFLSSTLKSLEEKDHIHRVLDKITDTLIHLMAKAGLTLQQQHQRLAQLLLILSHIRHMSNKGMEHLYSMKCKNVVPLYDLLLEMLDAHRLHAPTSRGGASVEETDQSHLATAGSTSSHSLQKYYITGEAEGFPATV

U87MG = test: In vitro cytological inhibitory activity (XTT); type: cell-based; conditions: Homo sapiens, U-87 MG, 72 hrs
Method: U87MG: Human brain astrocytoblast cell line;
1. Preparation of agents and compounds:
• 1.1 Preparation of phosphoric acid buffering solution (PBS): 8 g NaCl, 0.2 g KCl, 1.44 g Na2HPO4 and 0.24 g KH2PO4 were weighed and added to 800 mL ultrapure water. The mixture was adjusted to pH=7.4, and ultrapure water was added to the metered volume of IL. Then the autoclaving was conducted for 20 mins. • 1.2 Preparation of XTT detection working solution: 100 mg (2,3-Bis-(2-methoxy-4-nitro-5-sulfophenyl)-2H-tetrazolium-5-carboxanilide); 2,3-bis(2-methoxy-4-nitro-5-sulfophenyl)-5-[(phenylamino)carbonyl]-2H-tetrazolium hydroxide (XTT) powder was weighed, and dissolved under protection from light 300 mL of phenol red-free and serum-free RPMI1640 culture, which had been warmed up to 50° C. The resulting mixture was filtered, packaged and used immediately or in one week. The complete process was conducted under protection from light. • 1.3 Preparation of the test compound • Preparation of the stock solution of the test compound: The test compound powder was dissolved in DMSO in a concentration of 10 mM. • Preparation of the gradiently diluted solution of the test compound: 10 mM of the stock solution of the test compound was successively and gradiently diluted with DMSO by 4 folds for 10 concentrations. […]

Chain of Opiate μ(OP3, MOP) (P35372 whole entry): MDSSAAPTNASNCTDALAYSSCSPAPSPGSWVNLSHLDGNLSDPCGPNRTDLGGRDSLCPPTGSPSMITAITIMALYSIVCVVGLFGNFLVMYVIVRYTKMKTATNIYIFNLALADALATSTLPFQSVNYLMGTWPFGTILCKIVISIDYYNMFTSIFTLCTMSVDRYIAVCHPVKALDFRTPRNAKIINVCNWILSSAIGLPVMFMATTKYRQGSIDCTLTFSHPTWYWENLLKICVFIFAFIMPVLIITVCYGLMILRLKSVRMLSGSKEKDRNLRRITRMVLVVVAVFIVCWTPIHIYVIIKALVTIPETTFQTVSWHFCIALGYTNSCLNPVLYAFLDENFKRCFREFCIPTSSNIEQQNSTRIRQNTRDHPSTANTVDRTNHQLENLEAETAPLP

IC50 (U87MG) [nM] | Compound | inhibition at 10 µM (Opiate μ(OP3, MOP)) [%] | inhibition at 10 µM [1] [%] | inhibition at 10 µM (Estrogen ERα) [%]
 | Nc1ccc(-c2ccc3ncc4c(=O)[nH]c(=O)n(-c5cccc(C(F)(F)F)c5)c4c3n2)cn1 [Compound 5, 9-(6-aminopyridin-3-yl)-1-(3-(trifluoromethyl)phenyl)pyrimido[5,4-c][1,5]naphthyridine-2,4(1H,3H)-dione] | 2 | 6 | 17
28.3 | O=c1[nH]c(=O)n(-c2cccc(C(F)(F)F)c2)c2c1cnc1ccc(-c3cnc4[nH]ccc4c3)nc12 [Compound 30, 9-(1H-pyrrolo[2,3-b]pyridin-5-yl)-1-(3-(trifluoromethyl)phenyl)pyrimido[5,4-c][1,5]naphthyridine-2,4(1H,3H)-dione] |  |  | 
